Measurements: patent US20120134933A1, “USE OF HIGH-DOSES OF MONOMERIC CONTRAST MEDIUM CONTAINING IODINE IN X-RAY DIAGNOSTICS, IN PARTICULAR IN INTERVENTIONAL X-RAY DIAGNOSTICS AND IN RADIATION THERAPY ASSISTED BY CONTRAST MEDIA CONTAINING IODINE” (BAYER PHARMA AKTIENGESELLSCHAFT, priority 2009, published 2012)

Experiments:
Assay type in all cases: in vivo, Wistar Han rats
[1] = test system: tubular cells; assay: Vacuolization in the kidney 24 hours after injection of XCM (histology of paraffin sections); conditions: rat, 4 g of iodine per kg of BW i.v.; for degree of vacuolization in the kidney (in words): compared among monomeric XCMs
Method: (§1) For the study, use was made of the following XCMs, each obtained from their producer. The monomeric XCMs investigated were iopromide 300 (Bayer Vital, Leverkusen), iomeprol 300 (Altana, Konstanz, Germany), and iohexyl 350 (Omnipaque, GE Healthcare, Munich, Germany). For comparison, Isovist 300 (Bayer Vital, Leverkusen) and iodixanol 320 and iodixanol 270 (Visipaque, GE Healthcare, Munich, Germany), two dimeric XCMs, were also included in the study. The XCMs were injected in one dose of 4 g per kg of body weight (BW). As with all toxicological issues, it should be noted that the conversion to the human dose has to be based on body surface area. Thus, 4 g of iodine per kg of BW in the rat correspond to about 0.6 g of iodine per kg of BW in humans.
(§2) Wistar Han (CRL: WI) rats (male; 230-300 g) were obtained from Charles River (Sulzfeld, Germany). The animals were kept under normal laboratory conditions at a temperature of 22° C. and a night/day rhythm of 12 hours. The animals had access to standard feed and water ad libitum. The animals were kept and treated in accordance with the German animal welfare guidelines.
(§3) The respective XCMs were intravenously (i.v.) injected in one dose of 4 g of iodine per kg of BW (corresponds to 0.6 g of iodine per kg of BW in humans) into the tail vein. The XCMs were manually injected as a bolus, followed by a 0.2 ml bolus of saline solution. Each test group consisted of 6 test animals. The iodine concentrations in the kidneys were determined ex vivo by X-ray fluorescence analysis (XFA). 24 hours after the XCM injection, the animals were sacrificed and both kidneys were removed. The kidneys were lysed in 10% KOH, and the iodine concentration in the sample was subsequently determined by XFA. The iodine concentrations in the renal cortex were determined 24 hours after the injection using a 64-slice CT scanner (Sensation 64, Siemens Medical Solutions, Erlangen, Germany). Scanner settings (80 kV, 120 mAseff) were used for all investigations, and the reconstructions were carried out with an image field of 70×70 mm and a thickness of 1 mm The X-ray attenuation in Hounsfield units (HU) was determined in the cortex of the kidney in 3 independent regions of interest (ROI) (FIG. 2). All data were carried out by two independent blinded readers.
To determine the degree of vacuolization, a kidney was removed 24 after the injection of the XCMs and a medial piece of tissue was fixed in formaldehyde and embedded in paraffin. The microtome sections were stained with hematoxylin, and the degree of vacuolization was determined. The determination of the degree of vacuolization was carried out in a blinded experiment by Dr. Haider, Institut für Tierpathologie [Institute for Animal Pathology].

[2] = Renal iodine content 24 hours after injection of XCM, X-ray fluorescence analysis (XFA) of lysed kidneys; conditions: rat, 4 g of iodine per kg of BW i.v., mean +/- SD, 6 animals
Method: as §1, §2
as §3, with “The XCMs were manually injected as a bolus, followed by a 0.2 ml bolus of saline solution. Each test group consisted of 6 test animals.” left out, “24 hours after the XCM injection, the animals were sacrificed and both kidneys were removed.” left out

[3] = Renal cortex iodine content 24 hours after injection of XCM, X-ray attenuation by CT; conditions: rat, 4 g of iodine per kg of BW i.v., 80 kV, mean +/- SD, 6 animals
Method: as §1, §2
as §3, with “The XCMs were manually injected as a bolus, followed by a 0.2 ml bolus of saline solution. Each test group consisted of 6 test animals.” left out, “24 hours after the XCM injection, the animals were sacrificed and both kidneys were removed.” left out

[4] = of 6 animals, listed as Iopromide 300
[5] = of 6 animals, listed as iopromide

Row | SMILES | degree of vacuolization in the kidney (in words) [1] | Moderate degree of vacuolization (number of animals) ([1]; of 6 animals) | Slight degree of vacuolization (number of animals) ([1]; of 6 animals) | iodine concentration in the kidney (XFA) [2] | X-ray attenuation in the renal cortex (CT) [3] | No vacuolization (number of animals) [1, 4] | Slight degree of vacuolization (number of animals) [1, 4] | No vacuolization (number of animals) [1, 5] | Slight degree of vacuolization (number of animals) [1, 5] | Slight degree of vacuolization (number of animals) ([1]; of 6 animals, listed as Iomeprol 300)
1 | CC(=O)N(CC(O)CO)c1c(I)c(C(=O)NCC(O)CO)c(I)c(C(=O)NCC(O)CO)c1I (centres unmarked) [iohexyl 350] | increased vacuolization | 3 | 3 |  |  |  |  |  |  | 
2 | COCC(=O)Nc1c(I)c(C(=O)NCC(O)CO)c(I)c(C(=O)N(C)CC(O)CO)c1I (centres unmarked) [iopromide 300, N,N′-bis(2,3-dihydroxypropyl)-2,4,6-triiodo-5-[(methoxyacetyl)amino]-N-methyl-1,3-benzenedicarboxamide] | lowest degree of vacuolization |  |  | significantly lowest iodine contents | significantly lowest values | 2 | 4 | Two | four | 
3 | CN(C(=O)CC(=O)N(C)c1c(I)c(C(=O)NC(CO)C(O)CO)c(I)c(C(=O)NC(CO)C(O)CO)c1I)c1c(I)c(C(=O)NC(CO)C(O)CO)c(I)c(C(=O)NC(CO)C(O)CO)c1I (centres unmarked) [iotrolan 300] |  |  |  | 3.4+/−0.6 mg of iodine per g of kidney tissue | 217.2+/−29.4 HU |  |  |  |  | 
4 | CN(C(=O)CO)c1c(I)c(C(=O)NCC(O)CO)c(I)c(C(=O)NCC(O)CO)c1I (centres unmarked) [iomeprol 300] | increased vacuolization |  | all the animals investigated | 0.738+/−0.098 mg of iodine per g of kidney tissue | 45.0+/−5.9 HU |  |  |  |  | 6
